Here are results for 7 compounds from patent US9220758B2, “Calcitonin products and therapies for treating inflammatory or degenerative diseases” (UGP Therapeutics, Inc., priority 2010, dated 2015).

Holding throughout (type): cell-based
Assay [1] deals with bovine articular cartilage explants. The experiment in a line: Proteoglycan (GAG) release from cytokine-stimulated bovine cartilage explants (Blyscan assay). The settings on record: for effect on proteoglycan release (in words): Example 1, concentrations of Table 1; for highest ineffective concentration, Proteoglycan release: TNFa/IL-1a/OSM 10 ng/ml each, 3 week culture; for normalized GAG (proteoglycan) release: stimulated control = 100%. The procedure:
(§1) Full thickness cartilage was obtained from the metacarpophalangeal joints of approximately 6 months old calves (from a local slaughterhouse). Cartilage punches (4 mm) were taken from the cartilage and placed in culture dishes with culture medium (DMEM+FCS, penicillin, streptomycin and ascorbic acid). Cartilage explants were weighed and explants between about 5 and about 15 mg were divided into a 96-well culture plate with 1 explant per well and 200 μL culture medium. Cartilage degradation was induced by addition of TNFα, IL-1α, and OSM at 10 ng/mL each to the culture medium. Test agents were then added at different concentrations. During three weeks of culture, the culture medium and the test compounds were refreshed once weekly. In addition fresh calcitonin was added twice weekly to the cartilage explants. Culture medium and cartilage explants were stored at −20° C. until analysis. Each culture condition was cultured in four-fold and the entire experiment was performed on cartilage from three different paws. The different culture conditions are listed below in Table 1.
(§2) Outcome parameters included (i) CTX-II in the culture medium as a measure of collagen degradation, (ii) GAG in the culture medium and cartilage explant as a measure of proteoglycan degradation, (iii) prostaglandin E2 (PGE2) measured by ELISA in the culture medium as a measure of inflammation, and (iv) general MMP activity in the culture medium. Not all outcome parameters were determined for each of the culture conditions.
The proteoglycan release is measured as GAG release per mg cartilage. Proteoglycan (GAG) content was determined in the pooled medium and explants using the Blyscan® colorimetric assay (Biocolor, Belfast, UK). This value is normalized against the control condition of each donor to correct for donor variation. The basal release of unstimulated cartilage is 36% (p<0.05) when the stimulated (IL-1a, TNFα and OSM) control is set to 100%.
as §1, with “the culture medium to induce cartilage degradation. Test agents” for “the culture medium. Test agents”, “in Table 3.” for “in Table 1.”

Assay [2] shares this test system. Nature of the assay: PGE2 release from cytokine-stimulated bovine cartilage explants (ELISA). The settings on record: for highest ineffective concentration, PGE2 release: TNFa/IL-1a/OSM 10 ng/ml each, 3 week culture; for normalized PGE2 release: stimulated control = 100%. As for the experimental part:
as §1, §2
The prostaglandin E2 release was measured as PGE2 release per mg cartilage. PGE2 was determined in the pooled medium using a PGE2 ELISA from R&D Systems. This value was normalized against the control condition of each donor to correct for donor variation. The basal release of unstimulated cartilage is 11% (p<0.0 1) when the stimulated (IL-1a, TNFα and OSM) control is set to 100%.
as §1, with “the culture medium to induce cartilage degradation. Test agents” for “the culture medium. Test agents”, “in Table 3.” for “in Table 1.”

The test system is the same in assay [3]. The experiment in a line: Collagen (CTX-II) release from cytokine-stimulated bovine cartilage explants (CTX-II ELISA). The settings on record: for effect on collagen release (in words): Example 1, concentrations of Table 1; for highest ineffective concentration, Collagen Release: TNFa/IL-1a/OSM 10 ng/ml each, 3 week culture; for CTX-II release: stimulated control 135. As for the experimental part:
as §1, §2
Collagen release was measured as CTX-II release per mg cartilage. Collagen was measured in the pooled medium using the CTXII ELISA assay (Pre-clinical Cartilaps®, Nordic Bioscience).
as §1, with “the culture medium to induce cartilage degradation. Test agents” for “the culture medium. Test agents”, “in Table 3.” for “in Table 1.”

For assay [4] the test system is unchanged. The experiment in a line: General MMP activity in culture medium of cytokine-stimulated bovine cartilage explants (fluorogenic substrate). Particulars: stimulated control 23. The procedure: as §2
The MMP activity was measured as MMP activity per mg cartilage.
as §1, with “the culture medium to induce cartilage degradation. Test agents” for “the culture medium. Test agents”, “in Table 3.” for “in Table 1.”

On to `CNC(=O)[C@H](Cc1c[nH]c2ccccc12)NC(=O)[C@@H](CC(=O)NO)CC(C)C` [Galardin], for which, in assay [1], the “effect on proteoglycan release (in words)” value is recorded as “slightly inhibited” and the “highest ineffective concentration, Proteoglycan release” value lay in the range of 1 to 10 µM. Besides, the “normalized GAG (proteoglycan) release” value in assay [1] (compound alone at 10 μM) is reported as 72%. For the same compound, in assay [2], the “highest ineffective concentration, PGE2 release” value is above 10 µM. Moreover, in assay [3], the “effect on collagen release (in words)” value is listed as “inhibited” and the “highest ineffective concentration, Collagen Release” value was below 0.1 µM.

Turning to `CNC(=O)[C@H](Cc1ccccc1)NC(=O)[C@H](CC(C)C)[C@H](CSc1cccs1)C(=O)NO` [BB-94], the results for the “normalized GAG (proteoglycan) release” value in assay [1] (compound alone at 10 nM) and in assay [1] (compound alone at 100 nM) were 83% and 80%, respectively. The MMP activity is 13 RFU/sec per mg cartilage in assay [4] (compound alone at 10 nM) and 4 RFU/sec per mg cartilage in assay [4] (compound alone at 100 nM). Further, the results for the CTX-II release in assay [3] (compound alone at 10 nM) and in assay [3] (compound alone at 100 nM) were 137 ng/mg cartilage and 27 ng/mg cartilage, respectively.

For the compound `C[C@@H]1C[C@H]2[C@@H]3CCC4=CC(=O)C=C[C@]4(C)[C@@]3(F)[C@@H](O)C[C@]2(C)[C@@]1(O)C(=O)CO` [Dexamethasone], the “highest ineffective concentration, Proteoglycan release” value in assay [1] was below 0.01 µM. Besides, the “highest ineffective concentration, PGE2 release” value in assay [2] is below 0.01 µM. In assay [3], the “highest ineffective concentration, Collagen Release” value was below 0.01 µM.

Turning to Calcitonin, in assay [1], the “highest ineffective concentration, Proteoglycan release” value was above 0.01 µM. In assay [1] (compound alone at 10 nM), the “normalized GAG (proteoglycan) release” value came to 87%. The “highest ineffective concentration, PGE2 release” value in assay [2] is above 0.01 µM. Moreover, the “normalized PGE2 release” value in assay [2] (compound alone at 10 nM) was determined as 117%. The MMP activity in assay [4] (compound alone at 10 nM) stood at 15 RFU/sec per mg cartilage. Moreover, the “highest ineffective concentration, Collagen Release” value in assay [3] was 0.0003 to 0.001 µM. Further, in assay [3] (compound alone at 0.5 nM), the CTX-II release was determined as 133 ng/mg cartilage.

With anakinra [Kineret ® (anakinra)], in assay [1], the “effect on proteoglycan release (in words)” value is reported as “inhibited all outcome parameters” and the “highest ineffective concentration, Proteoglycan release” value is below 0.1 µg/mL. In assay [2] (Example 1, concentrations of Table 1), the “effect on PGE2 release (in words)” value is “inhibited all outcome parameters”. For the same compound, the “highest ineffective concentration, PGE2 release” value in assay [2] is below 0.1 µg/mL. Besides, the “effect on collagen release (in words)” value in assay [3] is “inhibited all outcome parameters”.

Turning to `C[C@H]1c2cccc(O)c2C(=O)C2=C(O)[C@]3(O)C(=O)C(C(N)=O)=C(O)[C@@H](N(C)C)[C@@H]3[C@@H](O)[C@@H]21` [Doxycycline], in assay [1], the “highest ineffective concentration, Proteoglycan release” value was above 100 µM. The “normalized GAG (proteoglycan) release” value in assay [1] (compound alone at 100 μM) turned out to be 80%. Moreover, in assay [2], the “highest ineffective concentration, PGE2 release” value is 1 to 10 µM. In addition, the “normalized PGE2 release” value in assay [2] (compound alone at 10 μM) is on record as 111%. Moreover, the MMP activity in assay [4] (compound alone at 10 μM) was found to be 14 RFU/sec per mg cartilage. In addition, the “highest ineffective concentration, Collagen Release” value in assay [3] lay in the range of 10 to 100 µM. In addition, the CTX-II release in assay [3] (compound alone at 10 μM) is 125 ng/mg cartilage.

`Cc1ccc(-c2cc(C(F)(F)F)nn2-c2ccc(S(N)(=O)=O)cc2)cc1` [Celebrex ® (celecoxib), celecoxib]: in assay [1], the “highest ineffective concentration, Proteoglycan release” value was 0.1 to 1 µM. Also, in assay [2], the “highest ineffective concentration, PGE2 release” value was below 0.01 µM. For the same compound, the “highest ineffective concentration, Collagen Release” value in assay [3] was above 10 µM.
